{"source": "patent US4539410A", "about": "“N-Substituted-2-(1-imidazolyl)indoles” (priority 1983, dated 1985)", "key": {"[1]": {"target": "T1, thromboxane synthetase from lysed human platelets (Homo sapiens, UniProt P24557)", "T1 construct": "crude microsomal preparation of thromboxane synthetase from lysed human platelets; from tissue; host or cells: human platelets (lysed), crude microsomal preparation", "T1 sequence (P24557 1-533)": "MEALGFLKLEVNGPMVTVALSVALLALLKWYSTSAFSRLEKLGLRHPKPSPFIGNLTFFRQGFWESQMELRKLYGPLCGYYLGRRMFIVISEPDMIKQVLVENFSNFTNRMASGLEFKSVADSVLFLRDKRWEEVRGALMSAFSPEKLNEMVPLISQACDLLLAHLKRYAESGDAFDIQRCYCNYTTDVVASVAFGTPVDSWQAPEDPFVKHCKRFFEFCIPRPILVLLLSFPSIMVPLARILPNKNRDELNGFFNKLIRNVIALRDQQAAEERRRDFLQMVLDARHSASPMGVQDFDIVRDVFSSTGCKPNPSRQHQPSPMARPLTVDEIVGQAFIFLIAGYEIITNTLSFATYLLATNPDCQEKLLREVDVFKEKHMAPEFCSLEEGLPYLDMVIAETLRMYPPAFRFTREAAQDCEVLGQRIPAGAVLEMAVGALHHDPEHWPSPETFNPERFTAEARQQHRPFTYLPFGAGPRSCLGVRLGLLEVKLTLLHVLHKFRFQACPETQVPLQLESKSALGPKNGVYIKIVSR", "assay": "in vitro inhibition of thromboxane synthetase (14C-arachidonic acid, TxB2/PGF2 α+β ratio)", "format": "biochemical", "conditions": "concentration at which ratio TxB2/PGF2 α+β is reduced to 50% of control; 30 minutes incubation", "description": "Res. Comm. 74, 1432 (1977); the testing procedure is as follows:\n^14 C-Arachidonic acid is incubated with an enzyme mixture preparation consisting of solubilized and partially purified prostaglandin cyclo-oxygenase from sheep seminal vesicles and a crude microsomal preparation of thromboxane synthetase from lysed human platelets. The test compound (dissolved in buffer, or if necessary, in a small amount of ethanol) is added to the incubation medium. At the end of the incubation period (30 minutes), Prostaglandin E2 (PGE2) is reduced to a mixture of Prostaglandin F2 α and F2 β (PGF2 α+β) by addition of sodium borohydride. The radioactive products and excess substrate are extracted into ethyl acetate; the extract is evaporated to dryness; the residue is dissolved in acetone, spotted on thin-layer plates and chromatographed in the solvent system toluene:acetone:glacial acetic acid (100 volumes:100 volumes:3 volumes). The radioactive zones are located; those corresponding to Thromboxane B2 (T×B2) and PGF2 α+β are transferred to liquid scintillation vials and counted. The ratio of counts for T×B2 /PGF2 α+β is calculated for each concentration of test compound and IC50 values are determined graphically as the concentration of test compound at which the ratio of T×B2 /PGF2 α+β is reduced to 50% of the control value."}, "[2]": {"system": "thromboxane B2 plasma level", "assay": "in vivo reduction of plasma thromboxane B2 in rats after ionophore A23187", "conditions": "oral dose as low as 0.20 mg/kg", "description": "(§1) The inhibition of the synthesis and the reduction of plasma levels of thromboxane is determined in vivo on administration to rats in the following manner (as adapted from the procedures described by Tai et al. in Anal. Biochem. 87:343, 1978 and by Salmon in Prostaglandins 15:383, 1978):\n(§2) Rats are dosed with vehicle or test drug and injected intravenously with inophore A23187 (0.5 mg/kg) two hours later. Blood is collected for analysis 2 minutes after the ionophore injection. A single aliquot of each plasma sample is assayed for thromboxane B2 and another aliquot for 6-keto-PGF1 α, the stable metabolites of thromboxane A2 and prostacyclin (PGI2) respectively, by radioimmunoassay."}, "[3]": {"system": "prostacyclin (PGI2) plasma level", "assay": "in vivo plasma prostacyclin (6-keto-PGF1 α) in rats after ionophore A23187", "conditions": "oral, at 0.20 mg/kg or a higher dose", "description": "as §1, §2"}}, "note": "pIC50: −log10 of the molar value.", "data": [{"smiles": "Cc1c(-n2ccnc2)n(CCCCCC(=O)O)c2ccccc12.Cl", "note": "[Example 3, 1-(5-carboxypentyl)-2-(1-imidazolyl)-3-methylindole hydrochloride]", "values": [{"measurement": "pIC50", "setting": "[1]", "result": 8.64}, {"measurement": "decrease of the plasma concentration of thromboxane B2", "setting": "[2]", "result": "over 50%"}, {"measurement": "plasma level of prostacyclin", "setting": "[3]", "result": "increase in the plasma level of prostacyclin occurs"}]}]}
